According to patent US10870647B2, “Imidazopyridine derivative, method for preparing same, and pharmaceutical composition containing same as active ingredient for preventing or treating cancer” (DAEGU-GYEONGBUK MEDICAL INNOVATION FOUNDATION, priority 2016, dated 2020):

Experiments:
Test in all cases: Kinase selectivity, scanMAX Kinase assay panel (DiscoverX), % control at 1 uM
Assay type in all cases: binding
[1] = molecular target: T1, scanMAX Kinase assay panel (Homo sapiens, UniProt Q56UN5); details: YSK4; 1 uM; read-out: Percent Control (%)
T1 construct: purchased DiscoverX
T1 sequence (Q56UN5 1-1328): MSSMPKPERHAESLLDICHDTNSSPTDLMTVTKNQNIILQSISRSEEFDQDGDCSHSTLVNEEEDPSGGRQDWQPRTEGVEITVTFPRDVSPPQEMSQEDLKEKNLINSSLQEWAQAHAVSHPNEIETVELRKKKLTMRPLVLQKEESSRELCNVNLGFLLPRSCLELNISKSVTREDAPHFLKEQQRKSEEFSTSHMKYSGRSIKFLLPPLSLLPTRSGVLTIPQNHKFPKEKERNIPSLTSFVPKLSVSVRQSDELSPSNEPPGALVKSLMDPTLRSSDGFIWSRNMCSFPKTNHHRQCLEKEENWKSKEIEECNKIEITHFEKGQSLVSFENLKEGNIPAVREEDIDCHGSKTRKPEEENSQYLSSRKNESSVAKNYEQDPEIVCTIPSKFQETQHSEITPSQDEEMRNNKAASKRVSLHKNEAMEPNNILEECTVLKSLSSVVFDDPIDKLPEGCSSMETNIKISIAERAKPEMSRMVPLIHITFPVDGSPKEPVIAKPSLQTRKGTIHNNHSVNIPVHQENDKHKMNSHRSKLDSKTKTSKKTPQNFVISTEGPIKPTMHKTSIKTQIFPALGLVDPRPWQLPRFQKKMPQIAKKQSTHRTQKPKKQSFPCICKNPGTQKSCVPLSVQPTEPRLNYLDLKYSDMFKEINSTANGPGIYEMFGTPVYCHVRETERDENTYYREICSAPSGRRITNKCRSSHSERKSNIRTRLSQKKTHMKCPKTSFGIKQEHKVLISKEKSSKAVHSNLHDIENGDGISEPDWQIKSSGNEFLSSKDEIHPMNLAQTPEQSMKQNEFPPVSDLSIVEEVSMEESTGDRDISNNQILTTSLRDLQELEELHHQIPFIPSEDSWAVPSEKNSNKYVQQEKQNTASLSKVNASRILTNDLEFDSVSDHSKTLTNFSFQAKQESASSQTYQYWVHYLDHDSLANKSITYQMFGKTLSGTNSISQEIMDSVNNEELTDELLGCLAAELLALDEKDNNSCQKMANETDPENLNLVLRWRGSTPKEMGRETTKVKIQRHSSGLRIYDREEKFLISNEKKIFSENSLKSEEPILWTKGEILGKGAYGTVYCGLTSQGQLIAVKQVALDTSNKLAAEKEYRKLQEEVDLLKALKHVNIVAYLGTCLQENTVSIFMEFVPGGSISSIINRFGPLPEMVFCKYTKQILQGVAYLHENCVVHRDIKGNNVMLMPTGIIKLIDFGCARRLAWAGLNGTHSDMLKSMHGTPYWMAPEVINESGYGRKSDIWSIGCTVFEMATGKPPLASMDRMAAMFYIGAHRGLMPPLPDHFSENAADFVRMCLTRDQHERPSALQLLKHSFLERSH
How it was run: (§1)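 1 uM cpd (DMSO) per kinase; % ctrl = [cpd − pos ctrl]/[neg ctrl − pos ctrl] × 100; hit if <35.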

[2] = molecular target: T2, scanMAX Kinase assay panel (Homo sapiens, UniProt P14616); details: INSRR; 1 uM; read-out: Percent Control (%)
T2 construct: purchased DiscoverX
How it was run: as §1

[3] = molecular target: T3, scanMAX Kinase assay panel (Homo sapiens, UniProt P12931); details: SRC; 1 uM; read-out: Percent Control (%)
T3 construct: purchased DiscoverX
How it was run: as §1

[4] = molecular target: T4, scanMAX Kinase assay panel (Homo sapiens, UniProt O00444); details: PLK4; 1 uM; read-out: Percent Control (%)
T4 construct: purchased DiscoverX
T4 sequence (O00444 1-970): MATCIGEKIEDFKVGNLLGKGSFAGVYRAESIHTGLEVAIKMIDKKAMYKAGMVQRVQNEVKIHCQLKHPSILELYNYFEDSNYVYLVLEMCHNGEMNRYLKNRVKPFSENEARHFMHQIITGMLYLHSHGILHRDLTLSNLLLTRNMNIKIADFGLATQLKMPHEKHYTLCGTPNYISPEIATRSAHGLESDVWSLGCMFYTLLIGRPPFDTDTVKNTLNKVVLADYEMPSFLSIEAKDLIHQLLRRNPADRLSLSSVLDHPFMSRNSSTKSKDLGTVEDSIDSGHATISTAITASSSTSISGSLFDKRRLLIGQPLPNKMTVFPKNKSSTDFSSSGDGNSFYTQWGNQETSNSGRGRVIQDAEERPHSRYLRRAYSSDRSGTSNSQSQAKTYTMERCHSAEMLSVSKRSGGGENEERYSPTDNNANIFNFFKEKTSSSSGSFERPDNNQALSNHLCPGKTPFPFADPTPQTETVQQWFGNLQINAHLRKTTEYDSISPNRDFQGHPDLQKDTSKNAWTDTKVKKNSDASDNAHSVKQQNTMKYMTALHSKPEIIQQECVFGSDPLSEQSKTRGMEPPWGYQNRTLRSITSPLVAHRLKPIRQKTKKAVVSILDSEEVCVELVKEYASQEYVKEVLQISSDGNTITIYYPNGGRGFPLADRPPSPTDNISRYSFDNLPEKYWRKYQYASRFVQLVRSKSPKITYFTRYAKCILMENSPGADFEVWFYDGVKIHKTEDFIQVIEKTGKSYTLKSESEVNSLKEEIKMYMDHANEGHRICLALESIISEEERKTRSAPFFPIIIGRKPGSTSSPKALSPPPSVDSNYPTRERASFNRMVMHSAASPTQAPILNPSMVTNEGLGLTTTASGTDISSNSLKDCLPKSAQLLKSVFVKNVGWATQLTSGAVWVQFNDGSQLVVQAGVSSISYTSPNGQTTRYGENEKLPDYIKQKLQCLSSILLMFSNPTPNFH
How it was run: as §1

[5] = molecular target: T5, scanMAX Kinase assay panel (Homo sapiens, UniProt O94921); details: PFTK1; 1 uM; read-out: Percent Control (%)
T5 construct: purchased DiscoverX
How it was run: as §1

T2 sequence (P14616 27-1297): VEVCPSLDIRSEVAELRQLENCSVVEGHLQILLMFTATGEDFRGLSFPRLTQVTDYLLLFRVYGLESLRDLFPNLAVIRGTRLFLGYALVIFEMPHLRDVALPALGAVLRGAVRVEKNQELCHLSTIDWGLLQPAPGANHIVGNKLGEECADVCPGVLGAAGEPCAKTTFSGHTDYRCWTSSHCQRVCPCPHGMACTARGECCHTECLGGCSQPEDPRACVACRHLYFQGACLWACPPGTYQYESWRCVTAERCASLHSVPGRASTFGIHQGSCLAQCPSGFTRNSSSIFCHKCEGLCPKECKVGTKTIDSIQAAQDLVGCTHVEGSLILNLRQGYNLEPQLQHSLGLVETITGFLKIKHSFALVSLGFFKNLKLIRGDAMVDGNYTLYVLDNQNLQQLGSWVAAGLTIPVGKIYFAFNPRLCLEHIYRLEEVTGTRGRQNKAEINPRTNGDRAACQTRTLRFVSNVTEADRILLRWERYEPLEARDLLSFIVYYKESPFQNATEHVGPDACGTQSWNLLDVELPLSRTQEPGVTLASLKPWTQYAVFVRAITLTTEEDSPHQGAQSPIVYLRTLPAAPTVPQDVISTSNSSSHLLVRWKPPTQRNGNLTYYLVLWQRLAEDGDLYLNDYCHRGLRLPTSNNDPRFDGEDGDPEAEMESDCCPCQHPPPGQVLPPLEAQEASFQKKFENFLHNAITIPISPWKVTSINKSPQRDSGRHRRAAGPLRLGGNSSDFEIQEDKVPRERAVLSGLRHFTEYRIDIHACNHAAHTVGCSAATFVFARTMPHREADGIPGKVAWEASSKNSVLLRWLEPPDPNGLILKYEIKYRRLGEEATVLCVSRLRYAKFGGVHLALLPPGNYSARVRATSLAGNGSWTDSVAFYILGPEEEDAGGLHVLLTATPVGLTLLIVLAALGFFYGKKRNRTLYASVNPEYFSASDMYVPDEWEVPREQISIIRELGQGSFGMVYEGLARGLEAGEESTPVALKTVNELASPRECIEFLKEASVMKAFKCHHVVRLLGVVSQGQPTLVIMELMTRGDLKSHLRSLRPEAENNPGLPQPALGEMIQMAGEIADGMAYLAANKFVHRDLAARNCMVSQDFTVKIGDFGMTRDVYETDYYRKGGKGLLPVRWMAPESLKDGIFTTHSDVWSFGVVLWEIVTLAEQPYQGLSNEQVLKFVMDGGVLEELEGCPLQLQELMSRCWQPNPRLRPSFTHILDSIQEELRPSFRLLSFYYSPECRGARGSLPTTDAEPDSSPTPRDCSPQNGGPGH
T3 sequence (P12931 whole entry): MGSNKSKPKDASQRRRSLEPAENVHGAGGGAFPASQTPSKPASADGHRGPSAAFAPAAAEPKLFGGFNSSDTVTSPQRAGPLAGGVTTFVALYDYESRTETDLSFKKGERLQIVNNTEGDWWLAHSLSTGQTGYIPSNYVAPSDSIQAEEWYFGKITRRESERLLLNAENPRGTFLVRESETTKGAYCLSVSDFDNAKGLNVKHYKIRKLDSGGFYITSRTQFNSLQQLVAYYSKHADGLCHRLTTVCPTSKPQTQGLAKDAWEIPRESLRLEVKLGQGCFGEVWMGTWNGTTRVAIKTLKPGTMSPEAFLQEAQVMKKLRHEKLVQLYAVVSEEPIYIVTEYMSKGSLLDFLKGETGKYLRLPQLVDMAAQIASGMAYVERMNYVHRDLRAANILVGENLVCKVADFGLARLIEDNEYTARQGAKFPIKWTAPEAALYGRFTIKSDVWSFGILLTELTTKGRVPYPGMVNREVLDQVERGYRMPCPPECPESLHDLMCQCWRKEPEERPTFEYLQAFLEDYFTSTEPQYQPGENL
T5 sequence (O94921 whole entry): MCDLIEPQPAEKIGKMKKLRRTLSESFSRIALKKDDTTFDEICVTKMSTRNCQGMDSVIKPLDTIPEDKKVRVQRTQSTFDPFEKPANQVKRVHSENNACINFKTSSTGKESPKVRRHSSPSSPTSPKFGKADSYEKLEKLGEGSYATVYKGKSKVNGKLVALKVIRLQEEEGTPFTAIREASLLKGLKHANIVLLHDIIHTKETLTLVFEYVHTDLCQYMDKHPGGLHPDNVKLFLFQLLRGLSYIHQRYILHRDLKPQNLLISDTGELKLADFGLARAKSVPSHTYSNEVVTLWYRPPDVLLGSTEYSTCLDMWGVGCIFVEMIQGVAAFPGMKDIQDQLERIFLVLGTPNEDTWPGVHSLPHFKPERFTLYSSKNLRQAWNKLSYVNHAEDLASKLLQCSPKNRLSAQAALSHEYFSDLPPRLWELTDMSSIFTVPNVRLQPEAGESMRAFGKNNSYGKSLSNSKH

Compound | remaining binding at 1 µM [1] [%] | remaining binding at 1 µM [2] [%] | remaining binding at 1 µM [3] [%] | remaining binding at 1 µM [4] [%] | remaining binding at 1 µM [5] [%]
Cc1ccc(NC(=O)C2(C(=O)Nc3ccc(F)cc3)CC2)cc1C#Cc1cnc2c(Nc3cnn(C(C)C)c3)cccn12 [Example 78] | 71 | 93 | 73 | 100 | 100
Cc1cn(-c2cc(NC(=O)c3ccc(C)c(C#Cc4cnc5c(Nc6cnn(C)c6)cccn45)c3)cc(C(F)(F)F)c2)cn1 [Example 12, 4-methyl-N-(3-(4-methyl-1H-imidazol-1-yl)-5-(trifluoromethyl)phenyl)-3-((8-((1-methyl-1H-pyrazol-4-yl)amino)imidazo[1,2-a]pyridin-3-yl)ethynyl)benzamide] | 2 | 95 | 1 | 85 | 87
Cc1ccc(C(=O)Nc2ccc(CN3CCN(C)CC3)c(C(F)(F)F)c2)cc1C#Cc1cnc2c(Nc3cnn(C)c3)cccn12 [Example 1, 4-methyl-3-((8-((1-methyl-1H-pyrazol-4-yl)amino)imidazo[1,2-a]pyridin-3-yl)ethynyl)-N-(4-((4-methylpiperazin-1-yl)methyl)-3-(trifluoromethyl)phenyl)benzamide] | 2 | 47 | 0 | 79 | 11
